The values that follow come from the SangsterLogP compilation.

Data set [1] is described as follows: method code SF-GLC, from DOI: 10.1016/s0021-9673(00)91779-5. The conditions noted are these: pH 7.0.
Assay in data set [2]: not given
The source holds these as a separate data set.

Assay in data set [3]: not given
The source holds these as a separate data set.

Data set [4] is described as follows: method code SF-AS, from DOI: 10.1213/00000539-199008000-00008, PMID: 2375517.
Assay in data set [5]: not given
The source holds these as a separate data set.

Data set [6] is described as follows: method code SF-ILT, from DOI: 10.1002/ardp.19763091008, PMID: 1008678.
Data set [7] can be described thus: method code SF, from DOI: 10.1584/jpestics.12.445.
The nature of data set [8]: method code SF-AS, from DOI: 10.1016/0300-483x(85)90004-6, PMID: 4024126.
The nature of data set [9]: method code SF-AS, from DOI: 10.1016/0378-5173(86)90115-8.
Data set [10] is described as follows: method code SF-HPLC, from DOI: 10.1002/ps.2780280108.
Data set [11] in a line: method code SF-AS, from DOI: 10.1016/0223-5234(96)88239-0. The conditions noted are these: pH 2.0.
Assay in data set [12]: not given
The source holds these as a separate data set.

Data set [13] in a line: method code SF-AS, from DOI: 10.1016/s0969-8051(99)00063-3, PMID: 10628565. Particulars: pH 7.0.
Data set [14] is described as follows: method code SF-HPLC, from Yu, G.; Xu, X. (1993). Determination of the 1-octanol/water partition coefficient of nitro-PAHs. Huanjing Huaxue, 12(4)299-303.
Assay in data set [15]: not given
This is another data set of the same source.

A short description of data set [16]: method code SF, from DOI: 10.1016/j.bcp.2004.09.021, PMID: 15627482. Particulars: pH 7.0.
Data set [17] in a line: method code SF-HPLC, from DOI: 10.1016/0006-2952(94)90540-1, PMID: 8185676.
Data set [18] is described as follows: method code SF-RC, from DOI: 10.1016/s0969-8051(00)00080-9, PMID: 10832080. The conditions noted are these: pH 13.0.
Data set [19] can be described thus: method code SF-RC, from DOI: 10.1002/syn.20147. The conditions noted are these: pH 7.4.
Data set [20] in a line: method code SF-HPLC, from DOI: 10.1006/pest.1998.2384.
Data set [21] is described as follows: method code SF-HPLC, from DOI: 10.1248/cpb.37.2861, PMID: 2611948. The conditions noted are these: pH 4.0.
Data set [22] in a line: method code SF-AS, from DOI: 10.1002/jps.2600611027, PMID: 5072421.
Data set [23] is described as follows: method code SF-HPLC, from DOI: 10.1023/a:1013643013244, PMID: 11837695. The conditions noted are these: pH 6.4.
Assay in data set [24]: not given
This is another data set of the same source.

Data set [25] is described as follows: method code SF-AS, from DOI: 10.1002/pauz.19770060602.
Assay in data set [26]: not given
The source holds these as a separate data set.

Data set [27] in a line: method code SF-RC, from DOI: 10.1016/j.apradiso.2010.08.010, PMID: 20843697. The conditions noted are these: pH 7.4.
Data set [28] in a line: method code SF-AS, from DOI: 10.1248/cpb.32.4084, PMID: 6099228. Particulars: pH 7.4.
Data set [29] can be described thus: method code SF-AS, from DOI: 10.1211/0022357011776199, PMID: 11428660. Particulars: pH 7.4.
Assay in data set [30]: not given
This is another data set of the same source.

Data set [31] is described as follows: method code SF, from DOI: 10.1023/a:1012119527214, PMID: 9453056. Particulars: pH 12.5.

In data set [1], `CCOP(=S)(Oc1ccccc1)c1ccccc1` (stereo not drawn) had a pH-dependent lipophilicity (logD) of 1.79.
`c1ccc2c(c1)-c1cccc3cccc-2c13`: the logP stood at 5.15.
`O=C(NC1CCN(CCF)CC1)c1ccc(I)cc1` registered a lipophilicity (logP) in data set [2] of 2.57.
`Brc1ccc(-c2ccccc2)c(Br)c1` gave a logP in data set [3] of 5.53.
Consider `CCN(CC)CCOC(=O)c1ccc(N)cc1Cl`, for which the logP in data set [4] stood at 2.86.
In turn, `COP(=O)(OC)O/C(C)=C/C(=O)OC(C)c1ccccc1` (stereo not drawn) yielded a log partition coefficient (logP) in data set [5] of 3.
`CCN(CC)C(=O)[C@@H]1[C@@H](C(=O)N(CC)CC)[C@H]2C=C[C@@H]1C2` returned a logP in data set [6] of 1.16.
Compound `C=C(c1ccccc1OCCCCCO)n1ccnc1` returned a log partition coefficient (logP) in [7] of 2.89.
In data set [8], `CC(C)(C)c1ccc(N2C(=O)CCC2=O)cc1` gave a logP of 0.67.
`O=C1c2ccccc2C(=O)c2c(O)cccc21` came in with a logP of 3.52.
Turning to `CN(C(=O)CCC(N)=O)c1ccc(S(=O)(=O)N(C)C)cc1`, the logP in data set [9] is -0.56.
With `COC(=O)c1c(C)[nH]c(-c2ncccc2Cl)c1C(=O)OC`, the log partition coefficient (logP) in [10] came out at 1.51.
`COc1ccc(C(=O)c2ncc(C(=O)O)n2C)cc1` showed a log distribution coefficient (logD) in [11] of 2.01.
For `CCCCC(C#N)(Cn1cncn1)c1ccc(Cl)cc1` (stereo not drawn), in data set [12], the lipophilicity (logP) amounted to 3.16.
`O=c1[nH]c(Nc2ccccc2)nc2c1ncn2CC(O)CSCCO` (stereo not drawn): in data set [13], the logD came out at 0.83.
`O=[N+]([O-])c1ccc2c(c1)Cc1ccccc1-2`: the log partition coefficient (logP) in data set [14] amounted to 3.99.
In data set [15], `CN(C)Cc1ccc(CSCCNc2[nH]ccc2[N+](=O)[O-])o1` yielded a logP of 1.64.
Consider `CCCCC1(C(=O)OC(C)CC)CCC=[N+]1[O-]` (stereo not drawn), for which, in data set [16], the logD turned out to be 1.59.
As for `CC(C)(C)C(O)C(Oc1ccc(Cl)cc1)n1cncn1` (stereo not drawn), the lipophilicity (logP) in [12] turned out to be 3.05.
Regarding `CC[C@@]1(Br)C(=O)NC(=O)N([C@H]2C[C@H](O)[C@@H](CO)O2)[C@H]1OC`, the log partition coefficient (logP) in data set [17] amounted to 0.4.
In data set [18], `CN1C2CCC1C(c1cccnc1)C2` (stereo not drawn) gave a logD of 1.65.
For `ClC1=C(Cl)C2(Cl)C3C4C=CC(C4)C3C1(Cl)C2(Cl)Cl` (stereo not drawn), in [5], the log partition coefficient (logP) was determined as 5.67.
Regarding `Cc1nc(C#Cc2cc(F)cc(C#N)c2)cs1`, the logD in data set [19] is 3.2.
With `C=CCN1CCN(Cc2ccc(Cl)nc2)C1=N[N+](=O)[O-]`, the logP in data set [20] turned out to be 0.51.
Consider `CCCCC1(C(=O)OCCC)CCC=[N+]1[O-]` (stereo not drawn), for which the logD in [16] was 1.16.
In turn, `Brc1cccc(-c2cc(Br)ccc2Br)c1` yielded a lipophilicity (logP) in [3] of 6.2.
`CC[C@]1(Cl)C(=O)NC(=O)N([C@H]2C[C@H](O)[C@@H](CO)O2)[C@@H]1OC` gave a logP in data set [17] of 0.4.
Regarding `O=c1[nH]c(Nc2ccccc2)nc2c1ncn2CC(O)CO` (stereo not drawn), the logD in data set [13] came out at 0.4.
In data set [21], `Cc1ccc(Cn2cc(F)c(=O)[nH]c2=O)cc1` registered a logD of 1.5.
Consider `CCCCCCCCc1ccncc1`, for which the log partition coefficient (logP) in data set [22] was found to be 5.42.
Compound `CN1C(=O)CCC(N2C(=O)c3ccccc3C2=O)C1=O` (stereo not drawn) displayed a log distribution coefficient (logD) in data set [23] of 1.15.
Consider `C=CCOc1ccccc1C(=C)n1ccnc1`, for which the logP in [7] is 2.74.
`CCCCCN1C(=O)CCC(N2C(=O)c3ccccc3C2=O)C1=O` (stereo not drawn) displayed a logD in data set [23] of 3.01.
`CN1CCN(c2ncc(-c3ccncc3)cc2C#N)CC1` registered a logP in data set [24] of 2.96.
As to `N#Cc1cc(F)cc(C#Cc2ccccn2)c1`, the log distribution coefficient (logD) in data set [19] came out at 2.8.
`CCCCCC(=O)N(C)c1ccc(S(=O)(=O)N(C)C)cc1` showed a lipophilicity (logP) in data set [9] of 2.16.
Compound `O=C1CN(O)C(c2ccccc2)=c2cc(Cl)ccc2=N1` gave a logD in data set [25] (pH 4.0) of 1.49.
Take `NS(=O)(=O)c1ccc(-c2cn([C@@H]3O[C@H](CO)[C@@H](O)[C@H](O)[C@H]3O)nn2)cc1`: the logP in [26] is -0.1.
The compound `CN1C2CCC1C(c1ccccn1)C2` (stereo not drawn) came in with a logD in data set [18] of 1.34.
In turn, `O=C(NCCN1C(=O)C=CC1=O)c1cccc(I)c1` had a logD in data set [27] of 1.03.
In turn, `COc1ccc(Cn2cc(F)c(=O)[nH]c2=O)cc1` yielded a logD in data set [21] of 1.04.
`O=[N+]([O-])c1ccc(-c2ccc([N+](=O)[O-])cc2)cc1` came in with a lipophilicity (logP) in data set [14] of 3.2.
`CCN/C(=N/C#N)NCCSCc1ncccc1Br`: the log partition coefficient (logP) in data set [15] was 1.98.
With `CCCCCCCCCc1ccncc1`, the lipophilicity (logP) in data set [22] was determined as 6.11.
With `O=C1CN=C(c2ccccn2)c2cc(Br)ccc2N1`, in [25], the log partition coefficient (logP) is 2.05.
For `O=C(CN1CCCCC1)Nc1ccc(Cl)cc1`, the pH-dependent lipophilicity (logD) in [28] came to 3.26.
On to `CCN(CC)C(=O)C1C2CC3C(OC(=O)C31)C2O` (stereo not drawn), for which the logP in data set [6] is 0.15.
Turning to `CCN(CC)CC(=O)OCCn1c([N+](=O)[O-])cnc1C`, the logD in data set [29] worked out at 0.03.
The compound `CCCNC(C)C(=O)Nc1ccccc1C` (stereo not drawn) displayed a logP in data set [4] of 2.11.
`Clc1cc(Cl)c2oc3c(Cl)c(Cl)c(Cl)c(Cl)c3c2c1Cl` returned a lipophilicity (logP) in data set [30] of 7.93.
As for `O=C(NC1CCN(CCO)CC1)c1ccc(I)cc1`, the logP in [2] was found to be 1.93.
On to `NS(=O)(=O)c1ccc(-n2cc(-c3ccccc3)nn2)cc1`, for which, in data set [26], the logP was determined as 2.3.
In [20], `C#CCN1CCN(Cc2ccc(Cl)nc2)C1=N[N+](=O)[O-]` returned a logP of 0.29.
As for `CCc1ccc(NC(=O)CN2CCCCC2)cc1`, the logD in data set [28] came to 3.52.
Turning to `Cc1nc(NCCN)c(C#N)cc1-c1ccncc1`, in [24], the logP turned out to be 1.91.
In turn, `CC(=O)c1ccc(N2C(=O)CCC2=O)cc1` displayed a logP in data set [8] of 1.37.
Turning to `CCOP(=S)(Oc1ccc(C)cc1)c1ccccc1` (stereo not drawn), in data set [1], the logD amounted to 2.22.
`Cc1ccc(C(=O)c2ncc(C(=O)O)n2C)cc1` had a pH-dependent lipophilicity (logD) in data set [11] of 2.25.
The compound `COC(=O)c1c(C)[nH]c(-c2cc(Cl)ccn2)c1C(=O)OC` came in with a logP in [10] of 2.63.
On to `CCN(CC)CC(=O)NCC(=O)Nc1c(C)cccc1C`, for which the logD in data set [31] was 2.2.
Turning to `Cc1ncc([N+](=O)[O-])n1CCOC(=O)CN1CCOCC1`, the pH-dependent lipophilicity (logD) in [29] came out at 0.27.
The compound `O=C(NCCN1C(=O)C=CC1=O)c1cncc(I)c1` displayed a logD in [27] of 0.63.
The compound `Cc1cccc(C)c1NC(=O)CN(C)C` showed a logD in [31] of 1.23.
